Source: patent EP3925626A1, “LIPOPEPTIDE CONJUGATES AND THEIR SALTS, METHOD OF MANUFACTURE OF LIPOPEPTIDE CONJUGATES AND THEIR SALTS, PHARMACEUTICAL COMPOSITION COMPRISING A LIPOPEPTIDE CONJUGATE AND ITS SALTS FOR THE TREATMENT OF CHRONIC WOUNDS” (priority 2020, dated 2021)
Read-outs that look alike come from different tables or passages of the source. Where a SMILES comes first, the peptide text is derived from it. [ ]: non-standard residue; d: D form. The star is where a group is joined. Hyp = O=C(O)[C@@H]1C[C@@H](O)CN1; Lauroyl = CCCCCCCCCCCC(=O)*

Columns and labels:
primary fibroblast [1] = assay type: cell-based
Method: (§1) The cytotoxicity of lipopeptide conjugates or their pharmaceutically acceptable salts was assessed in immortalized human cell lines, human primary fibroblast cells independently, separately using two assays, XTT and LDH. Approximately, 5×10^3 fibroblast human cell line BR1N, human primary fibroblast cells or HaCaT cells in 200 µl DMEM supplemented with 10% FCS per well were seeded in 96-well plate and incubated for 24 h (37°C, 5%CO2). Culture medium was replaced with fresh DMEM, and then the cells were exposed to lipopeptide conjugate or its pharmaceutically acceptable salt solutions administered in DMEM at the final concentration in the range from 1 µg mL^-1 to 1000 µg mL^-1. In the experiments, cells in DMEM medium treated with 0.9% solution of Triton X-100 were used as positive control (K+, 100% mortality), untreated cells in DMEM medium were assayed as a negative control (K-). After incubation, cytotoxicity was assessed by measuring the activity of the intracellular cytoplasmic enzyme - lactate dehydrogenase (LDH) and decrease in cell viability measured by a decrease in mitochondria metabolism activity to XTT reduction. The rapidly release of LDH enzyme into the cell culture supernatant is correlated with the plasma membrane damage and cell death. The LDH enzyme release was measured after removal of the supernatant, colorimetrically by incubation with reagent containing 2[4-iodophenyl]-3-[4-nitrophenyl]-5-phenyltetrazolium chloride. The absorbance measured at a wavelenght of 490nm using microplate reader Perkin Elmer spectrophotometer was proportional do LDH activity and the number of damaged cells. The XTT test was performed by adding the XTT solution to each test well. After incubation time at 37°C, the absorbance was measured at a wavelenght of 490nm. Average of absorbance measurements from 3 independent experiments was used to estimate the cell death. The mean absorbance from control wells was considered as 0% (negative control) and 100% (positive control) of cell mortality.

human erythrocytes = assay type: cell-based
Method: Hemolytic activity was determined by incubating 2% suspension of erythrocytes from healthy human blood (n=3)) with serial dilutions of each selected lipopeptide conjugates (at concentration range from 1000µg/mL to 10µg/mL). Fresh erythrocytes were collected by centrifugation for 10 min at 500xg, washed three times with PBS and diluted to a concentration of 2% in PBS. Erythrocytes were incubated with lipopeptide conjugate, but also with 1% Triton X-100 (positive control), in PBS (blank) at 37°C for 1 hour. After incubation, the plates were centrifuged at 500×g for 10 min, and the supernatants were transferred to new clean wells. Release of hemoglobin was measured as the absorbance of the supernatants at a wavelength of 540 nm using microplate reader (Victor PerkinElmer). The relative optical density compared to the suspension treated with 1% Triton X-100 was defined as the percentage of hemolysis. The results present HC10, HC50 defined as the lowest concentration of lipopeptide conjugate that induced 10% and 50% cell lysis, respectively. The novel lipopeptide conjuagtes have a lack of hemolytic activity at the wide range of concentrations in relation to their biological effect. These lipopeptide conjugates induced 10% of cell lysis at concentration range from 0.19 to 1.62 mM (Table 6). […]

HaCaT [2] = test: Cytotoxicity, LDH release assay; assay type: cell-based, human; conditions: 10% decrease in viability, tested 1÷1000 µg/mL
Method: as §1

BR1N [3] = test: Cytotoxicity, XTT viability assay (MTT in Table 5); assay type: cell-based, human; conditions: MTT (so in the source), 10% decrease in viability, tested 1÷1000 µg/mL
Method: as §1

primary fibroblast [4] = test: Cytotoxicity, XTT viability assay (MTT in Table 5); assay type: cell-based, human; conditions: MTT (so in the source), tested 1÷1000 µg/mL; for EC10: 10% decrease in viability
Method: as §1

HaCaT [5] = test: Cytotoxicity, XTT viability assay (MTT in Table 5); assay type: cell-based, human; conditions: MTT (so in the source), 10% decrease in viability, tested 1÷1000 µg/mL
Method: as §1

primary fibroblast cells = test: In vitro wound healing (closure) assay with IBIDI culture inserts, fibroblast migration; assay type: cell-based, human
Method: In vitro wound healing (closure) assay using IBIDI culture inserts were performed according to literature. Briefly, cell suspension (1,5×10^4) was seeded in Culture-insert 2 well in 70µl of growth medium (DMEM) and cultured for 24 h (37°C, 5%CO2) to form a monolayer. After removal of the Culture-insert, the newly created cell-free gap (wound) was wahed with DMEM followed by PBS. Cell monolayer was also preincubated for 30 min in the presence of mitomycin C (8µg/mL), as a DNA replication and cell proliferation inhibitor. A fresh DMEM and the cells were treated with a pharmaceutical composition containing a lipopeptide conjugate or pharmaceutically acceptable salt and incubated for 24h (37°C, 5%CO2). The cultures in DMEM (K+) was incubated under the same conditions as described above. After overnight incubation, the media was removed, cells were rinsed with sterile PBS and then 1% paraformaldehyde (PFA) was added. After 20 minutes, the cells were washed with PBS and stained with 0.05% crystal violet solution. The stained cells were washed with PBS and then distilled water was added to each well. The wounded areas were visualized microscopically and photographed by microscope (Zeiss). Photographs from the process of human fibroblasts migration after treatment with a pharmaceutical composition containing a lipopeptide conjugate or a pharmaceutically acceptable salt thereof at a given concentration are shown in Figure 7. Cell migration was analyzed using Imaging Software NIS-Elements Basic Research. Alternatively, the migration rate was expressed as the percentage of area reduction (wound closure) compared to the control K. Data of at least independent experiments (n=3) were shown in Figure 4. […] However, lipopeptide conjugates at a concentration of 0.01µg/mL regulated independently both processes, including fibroblast proliferation and migration.
The wound area reduced by 10.3-20.7% as cell migration progresses in comparison to control. This effect was statistically significant. The migration of primary fibroblast cells was enhanced after 24 hours of lipopeptide conjugates treatment. […]

[6] = test system: human keratinocyte primary culture; test: Keratinocyte proliferation in the wound closure setting; assay type: cell-based; conditions: relative to non-stimulated DMEM (K), mean±SD
BALB/c mice = test: In vivo full-thickness excision wound healing; parameters: species or system Mus musculus BALB/c mice; conditions: preparation 0.1% w/w daily d0÷d10 or 4.0% w/w at d0, d3, d7, d10; versus control
Method: 8-10 week-old female Mus musculus BALB/c mice (purchased from Tri-City Academic Laboratory Animal Centre-Research nad Services Centre) were used in the study. The experiments were carried out in Tri-City Academic Laboratory Animal Centre - Research and Services Centre according to the approved guidelines of Local Ethics Committee of Animal Experimentation in Bydgoszcz (permit No. 31/2018). Mice were housed under standard conditions, with ad libitum access to food pellets and tap water, and kept under control conditions (22±2°C, relative humidity 55±10%, 12/12 light/darck cycle).
In experiments, mice were divided into groups i.e. control groups (n=6) and experimental groups (n=6). The animals were anesthetized with 3÷5% isoflurane. […] The progress of the wound healing process was assessed according to the defined administration schedule at intervals (d0, d3, d7, d10, d14). […] Wound surfaces were each photographed with a Nikon Coolpix S5100 camera and calculated with the use of Image J. Wound healing (restoration of a full-layer skin) is interpreted as the percentage reduction of the original wound area over time. The process of reepithelization was also assessed, indicating the surface of new epithelium extending. […]

BR1N [7] = test: Cytotoxicity, LDH release assay; assay type: cell-based, human; conditions: 10% decrease in viability, tested 1÷1000 µg/mL
Method: as §1

Which EC10 (primary fibroblast [1]) does the source give for CCCCCCCCCCCC(=O)NCC(=O)N1CCC[C@H]1C(=O)N1C[C@H](O)C[C@H]1C(=O)N[C@@H](CCCCN)C(N)=O [Lipopeptide conjugate 3, N^α-lauroyl-Gly-Pro-Hyp-Lys-NH2] (Lauroyl-GP[Hyp]K-NH2) here?
The EC10 was 420.6 ± 42.1 µM.

What about the HC10 (human erythrocytes) of the same compound?
Its HC10 is 1.6169 mM.

What about the HC10 (human erythrocytes; red cells of human, 1 h) of the same compound?
The HC10 was 961.1 µg/mL.

What about the EC10 (HaCaT [2]) of the same compound?
The EC10 was 171.4 ± 78.3 µM.

And the EC10 (BR1N [3])?
The EC10 was greater than 504.7 µM.

And the EC10 (primary fibroblast [4])?
Its EC10 is 399.7 ± 35.8 µM.

What about the EC50 (primary fibroblast [4]; 50% decrease in viability) of the same compound?
Its EC50 is 685 ± 138 µM.

And the EC10 (HaCaT [5])?
Its EC10 is 210.2 ± 110.4 µM.

What about the “concentration that facilitates primary human fibroblast cell migration” value (primary fibroblast cells; 24 h treatment) of the same compound?
Its value is less than 0.1 µg/mL.

And the “reduction of the wound surface” value (primary fibroblast cells; aqueous solution, 0.01 µg/mL, compared to the control, primary human fibroblast cells)?
The value was 18.29%.

What about the “Keratinocyte proliferation [n-times of control]” value ([6]; 0.01 µg/mL) of the same compound?
The value was 1.29±0.17 n-times of control.

What about the “Keratinocyte proliferation [n-times of control]” value ([6]; 0.10 µg/mL) of the same compound?
Its value is 1.34±0.11 n-times of control.

What about the “Differences in wound size and coverage of the wound with a new epithelial layer” value (BALB/c mice) of the same compound?
The value was “visible from Day 3”.

CCCCCCCCCCCC(=O)NCC(=O)N1C[C@H](O)C[C@H]1C(=O)N1C[C@H](O)C[C@H]1C(=O)N[C@@H](CCCCN)C(N)=O [Lipopeptide conjugate 2, N^α-lauroyl-Gly-Hyp-Hyp-Lys-NH2] (Lauroyl-G[Hyp][Hyp]K-NH2) was tested. Which EC10 (primary fibroblast [1]) did it give?
The EC10 was 409.6 ± 66.9 µM.

And the HC10 (human erythrocytes)?
The HC10 was 0.1858 mM.

What about the HC10 (human erythrocytes; red cells of human, 1 h) of the same compound?
Its HC10 is 113.4 µg/mL.

What about the EC10 (BR1N [7]) of the same compound?
Its EC10 is 432.8 ± 34.5 µM.

What about the EC10 (HaCaT [2]) of the same compound?
The EC10 was 346.9 ± 35.0 µM.

And the EC10 (BR1N [3])?
The EC10 was 327.6 ± 40.9 µM.

What about the EC10 (primary fibroblast [4]) of the same compound?
The EC10 was 431.2 ± 34.7 µM.

What does the source list for CCCCCCCCCCCC(=O)NCC(=O)N1CCC[C@H]1C(=O)N[C@@H](CCCCN)C(N)=O [Lipopeptide conjugate 1] (Lauroyl-Gly-Pro-Lys-NH2)?
EC10 (primary fibroblast [1]): 890.9±171. 9 µM; HC10 (human erythrocytes): 0.2962 mM; HC50 (human erythrocytes): > 1.0387 mM; HC10 (human erythrocytes; red cells of human, 1 h): 142.5 µg/mL; HC50 (human erythrocytes; red cells of human, 1 h): > 500 µg/mL; EC10 (HaCaT [2]): 537.1 ± 45.3 µM; EC10 (HaCaT [5]): 254.1 ± 85.5 µM; Percentage wound area reduction observed at (primary fibroblast cells; primary fibroblast cells, tested at 0.01 and 0.10 µg/mL): 10-fold increased concentrations; Keratinocyte proliferation [n-times of control] ([6]; 0.01 µg/mL): 1.08±0.04 n-times of control; Keratinocyte proliferation [n-times of control] ([6]; 0.10 µg/mL): 1.08±0.04 n-times of control; Differences in wound size and coverage of the wound with a new epithelial layer (BALB/c mice): visible from Day 3
